Experimental data taken from patent US11673892B2, “Bicyclic compounds for use as RIP1 kinase inhibitors” (Genentech, Inc., priority 2017, dated 2023).

target: T1, human RIP1 kinase domain (2-375) (Homo sapiens, UniProt Q13546); experiment: RIP1 kinase inhibition biochemical assay (Transcreener ADP, fluorescence polarization); settings: Ki app (Morrison tight-binding fit); 50 nM enzyme, 50 uM ATP, 2 hours incubation
T1 construct: Purified human RIP1 kinase domain (2-375) (50 nM); made in house; host or cells: baculovirus-infected insect cells
T1 sequence (Q13546 2-375): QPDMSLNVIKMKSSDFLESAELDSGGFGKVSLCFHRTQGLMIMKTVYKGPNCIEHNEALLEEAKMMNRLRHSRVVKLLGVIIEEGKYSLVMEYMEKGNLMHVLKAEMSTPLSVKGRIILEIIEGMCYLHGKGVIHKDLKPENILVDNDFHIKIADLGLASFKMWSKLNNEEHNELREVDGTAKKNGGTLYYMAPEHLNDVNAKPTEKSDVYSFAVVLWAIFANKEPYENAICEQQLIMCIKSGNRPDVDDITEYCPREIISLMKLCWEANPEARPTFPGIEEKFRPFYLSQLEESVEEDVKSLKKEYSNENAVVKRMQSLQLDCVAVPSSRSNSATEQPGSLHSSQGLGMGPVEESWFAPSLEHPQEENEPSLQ
Description: RIP1 Kinase Inhibition Assays (Biochemical Assay)
The compounds of the present invention were tested for their capacity to inhibit RIP1K activity as described below.
The ability of the receptor interacting protein kinase (RIPK1) to catalyze the hydrolysis of adenosine-5′-triphosphate (ATP) is monitored using the Transcreener ADP (adenosine-5′-diphosphate) assay (BellBrook Labs). Purified human RIP1 kinase domain (2-375) (50 nM) derived from a baculovirus-infected insect cell expression system is incubated with test compounds for 2 hours in 50 mM Hepes buffer (pH 7.5) containing 30 mM MgCl2, 1 mM dithiothreitol, 50 uM ATP, 0.002% Brij-35, and 0.5% dimethyl sulfoxide (DMSO). Reactions are quenched by the addition of 1× Bell Brooks Stop buffer B (20 mM Hepes (ph7.5), 40 mM ethylenediaminetetraacetic acid and 0.02% Brij-35) containing an additional 12 mM EDTA and 55 ug/mL ADP2 antibody and 4 nM ADP-AlexaFluor® 633 tracer. The tracer bound to the antibody is displaced by the ADP generated during the RIP1K reaction, which causes a decrease in fluorescence polarization that is measured by laser excitation at 633 nm with a FP microplate reader M1000. Fractional activity was plotted against test article concentration. Using Genedata Screener software (Genedata; Basel, Switzerland), the data were fit to the tight-binding apparent inhibition constant (Ki^app) Morrison equation [Williams, J. W. and Morrison, J. F. (1979) The kinetics of reversible tight-binding inhibition. Methods Enzymol 63: 437-67]. The following equation was used to calculate fractional activity and Ki^app:
[formula] where [E]T and [I]T are the total concentrations of active enzyme and test article, respectively.
Exemplary compounds of the present invention are provided in Table 1 along with their physiochemical characterization and in vitro RIP1 kinase inhibitory activity data. “Method” in the first column of each table refers to the synthetic method(s) used to prepare each compound as shown in the Examples above. In certain examples, chiral column retention times (min) are provided for certain stereoisomers. Unless otherwise specified, the stereochemistry shown in each structure represents relative configuration of a single stereoisomer, and absolute configuration (i.e., “R” and/or “S”) is arbitrarily assigned. In some embodiments, where the Method is described to include the separation of stereoisomers, a single stereoisomer of a compound of Table 1 is provided.

SMILES	Ki [nM]
F[C@H]1C[C@@H](c2ccccc2)n2nc(-n3nnc4ccncc43)nc21 (single isomer, unassigned) [Example 83]	36
O[C@H](c1cc2n(n1)[C@@H](c1ccccc1)C[C@H]2F)C1CC1 (single isomer, unassigned) [Example 115]	81
FC(F)c1nc2n(n1)[C@@H](c1ccccc1)C[C@H]2F (single isomer, unassigned) [Example 118]	180
F[C@H]1C[C@@H](c2ccccc2)n2nc(-n3ncc4ncccc43)nc21 (single isomer, unassigned) [Example 84]	29
O[C@@H](c1cc2n(n1)[C@@H](c1ccccc1)C[C@H]2F)C1CC1 (single isomer, unassigned) [Example 114]	100
F[C@@H]1C[C@H](c2ccccc2)n2nc(C(F)(F)C3CC3)nc21 (racemic) [Example 5]	27
F[C@H]1C[C@@H](c2ccccc2)n2nc(CCC(F)(F)F)nc21 (single isomer, unassigned) [Example 18]	12
Cc1ccc2c(c1)nnn2-c1nc2n(n1)[C@H](c1ccccc1)C[C@@H]2F (racemic) [Example 88, 5-methyl-1-[rac-(5S,7S)-7-fluoro-5-phenyl-6,7-dihydro-5H-pyrrolo[1,2-b][1,2,4]triazol-2-yl]benzotriazole]	45
F[C@H]1C[C@@H](c2ccccc2)n2nc(CC3CCC3)nc21 (stereo in doubt) [Example 94, (5S,7S)-2-(cyclobutylmethyl)-7-fluoro-5-phenyl-6,7-dihydro-5H-pyrrolo[1,2-b][1,2,4]triazole]	16
CC(C)(C)C(F)(F)c1nc2n(n1)C(c1ccccc1)CC2F (racemic) [Example 9, Cis-2-(1,1-difluoro-2,2-dimethyl-propyl)-7-fluoro-5-phenyl-6,7-dihydro-5H-pyrrolo[1,2-b][1,2,4]triazole]	68
Cc1c(C#N)cnn1-c1nc2n(n1)[C@H](c1ccccc1)C[C@@H]2F (single isomer, unassigned) [Example 93]	5
F[C@@H]1C[C@H](c2ccccc2)n2nc(CCC(F)(F)F)nc21 (single isomer, unassigned) [Example 15]	1100
Cc1cc(C#N)nn1-c1nc2n(n1)[C@H](c1ccccc1)C[C@@H]2F (single isomer, unassigned) [Example 91]	13
Cc1nn(-c2nc3n(n2)[C@H](c2ccccc2)C[C@@H]3F)c(N)c1C#N (single isomer, unassigned) [Example 65]	720
CCOC(=O)[C@@H]1C[C@H]1c1nc2n(n1)[C@H](c1ccccc1)C[C@@H]2F (mixture of isomers) [Example 21, ethyl rac-(1R,2R)-2-[(5S,7S)-7-fluoro-5-phenyl-6,7-dihydro-5H-pyrrolo[1,2-b][1,2,4]triazol-2-yl]cyclopropanecarboxylate]	100
Fc1ccccc1[C@@H]1CCc2nc(CC3CC3)nn21 (single isomer, unassigned) [Example 98]	190
F[C@H]1C[C@@H](c2ccccc2)n2nc(-n3cc(-c4ccncn4)cn3)nc21 (single isomer, unassigned) [Example 41]	260
CC[C@@](C)(F)c1nc2n(n1)[C@H](c1ccccc1)C[C@@H]2F (single isomer, unassigned) [Example 32]	18
CCCc1nc2n(n1)[C@@H](c1ccccc1)C[C@H]2F (racemic) [Example 10, Cis-(5S,7S)-7-fluoro-5-phenyl-2-propyl-6,7-dihydro-5H-pyrrolo[1,2-b][1,2,4]triazole]	78
O[C@@H](c1nc2n(n1)[C@H](c1ccccc1)C[C@@H]2F)C1CC1 (single isomer, unassigned) [Example 35]	83

SMILES	Ki [nM]
OC(c1nc2n(n1)[C@H](c1ccccc1)C[C@@H]2F)[C@@H]1C[C@H]1F (stereo partly drawn) [Example 108, [(1S,2R)-2-fluorocyclopropyl]-[(5S,7S)-7-fluoro-5-phenyl-6,7-dihydro-5H-pyrrolo[1,2-b][1,2,4]triazol-2-yl]methanol]	120
F[C@H](c1nc2n(n1)[C@H](c1ccccc1)C[C@@H]2F)C1CC1 (single isomer, unassigned) [Example 109]	12
CC(C)(C#N)c1nc2n(n1)[C@H](c1ccccc1)C[C@@H]2F (racemic) [Example 103, 2-[rac-(5S,7S)-7-fluoro-5-phenyl-6,7-dihydro-5H-pyrrolo[1,2-b][1,2,4]triazol-2-yl]-2-methyl-propanenitrile]	220
F[C@H]1C[C@@H](c2ccccc2)n2nc(-n3nnc4cc(Cl)ccc43)nc21 (racemic) [Example 82, 5-chloro-1-[rac-(5S,7S)-7-fluoro-5-phenyl-6,7-dihydro-5H-pyrrolo[1,2-b][1,2,4]triazol-2-yl]benzotriazole]	9.2
Fc1cnn(-c2nc3n(n2)[C@H](c2ccccc2)C[C@@H]3F)c1 (single isomer, unassigned) [Example 58]	9
[2H]C(c1nc2n(n1)[C@H](c1ccccc1)C[C@@H]2F)C1CC1 (stereo partly drawn) [Example 101, (5S,7S)-2-[cyclopropyl(deuterio)methyl]-7-fluoro-5-phenyl-6,7-dihydro-5H-pyrrolo[1,2-b][1,2,4]triazole]	9
Fc1cn(-c2nc3n(n2)[C@H](c2ccccc2)C[C@@H]3F)cn1 (single isomer, unassigned) [Example 76]	64
N#CCCc1nc2n(n1)[C@H](c1ccccc1)C[C@@H]2F (single isomer, unassigned) [Example 22]	11
Cn1ccc(-c2nc3n(n2)[C@H](c2ccccc2)C[C@@H]3F)n1 (single isomer, unassigned) [Example 19]	1100
F[C@H]1C[C@@H](c2ccccc2)n2nc(-n3nnc4c3CCCC4)nc21 (racemic) [Example 86, 1-(rac-(5S,7S)-7-fluoro-5-phenyl-6,7-dihydro-5H-pyrrolo[1,2-b][1,2,4]triazol-2-yl]-4,5,6,7-tetrahydrobenzotriazole]	18
Cc1nn(-c2nc3n(n2)[C@H](c2ccccc2)C[C@@H]3F)cc1C#N (single isomer, unassigned) [Example 92]	250
CC(C)c1cnn(-c2nc3n(n2)[C@H](c2ccccc2)C[C@@H]3F)c1 (single isomer, unassigned) [Example 39]	30
Cc1ncn(-c2nc3n(n2)[C@H](c2ccccc2)C[C@@H]3F)c1C (single isomer, unassigned) [Example 70]	180
CC[C@@H](F)c1nc2n(n1)[C@H](c1ccccc1)C[C@@H]2F (racemic) [Example 7, rac-(5S,7S)-7-fluoro-5-phenyl-2-[rac-(1R)-1-fluoropropyl]-6,7-dihydro-5H-pyrrolo[1,2-b][1,2,4]triazole]	4
F[C@H]1C[C@@H](c2ccccc2)n2nc(-n3cc(C(F)(F)F)cn3)nc21 (single isomer, unassigned) [Example 56]	< 5
F[C@H]1C[C@@H](c2ccccc2)n2nc(-n3ncc4cnccc43)nc21 (single isomer, unassigned) [Example 89]	810
CC1(C(F)(F)c2nc3n(n2)[C@H](c2ccccc2)C[C@@H]3F)COC1 (single isomer, unassigned) [Example 17]	34
N#CCOCc1nc2n(n1)[C@H](c1ccccc1)C[C@@H]2F (racemic) [Example 51, 2-[(7-fluoro-5-phenyl-6,7-dihydro-5H-pyrrolo[1,2-b][1,2,4]triazol-2-yl)methoxy]acetonitrile]	120
F[C@H]1C[C@@H](c2ccccc2)n2nc(-n3cnc(Cl)c3)nc21 (single isomer, unassigned) [Example 75]	100
N#Cc1ccc2c(c1)nnn2-c1nc2n(n1)[C@H](c1ccccc1)C[C@@H]2F (racemic) [Example 85, 1-[rac-(5S,7S)-7-fluoro-5-phenyl-6,7-dihydro-5H-pyrrolo[1,2-b][1,2,4]triazol-2-yl]benzotriazole-5-carbonitrile]	19
